pKi: −log10 of the molar value. Like-named read-outs stand apart in the source and are kept apart here.
Columns and labels:
[1] = target: purified human autoBACE-2 (Homo sapiens (Human), UniProt Q9Y5Z0); assay: BACE-2 Assay (BACE-HTRF assay); assay type: biochemical; conditions: Table 1; Ki calculated from IC50 with Cheng-Prusoff equation; read-out: BACE2 Ki
Procedure: Inhibitor IC50s, at purified human autoBACE-2 are determined in a time-resolved endpoint proteolysis assay that measures hydrolysis of the QSY7-EISEVNLDAEFC-Eu-amide FRET peptide substrate (BACE-HTRF assay). BACE-mediated hydrolysis of this peptide results in an increase in relative fluorescence (RFU) at 620 nm after excitation with 320 nm light. Inhibitor compounds, prepared at 3× the desired final concentration in 1× BACE assay buffer (20 mM sodium acetate pH 5.0, 10% glycerol, 0.1% Brij-35) supplemented with 7.5% DMSO are pre-incubated with an equal volume of autoBACE-2 enzyme diluted in 1×BACE assay buffer (final enzyme concentration 1 nM) in black 384-well NUNC plates for 30 minutes at 30° C. The assay is initiated by addition of an equal volume of the QSY7-EISEVNLDAEFC-Eu-amide substrate (200 nM final concentration, Km=8 μM […] for autoBACE-2) prepared in 1×BACE assay buffer supplemented with 7.5% DMSO and incubated for 90 minutes at 30° C. DMSO is present at 5% final concentration in the assay. Following laser excitation of sample wells at 320 nm, the fluorescence signal at 620 nm is collected for 400 ms following a 50 μs delay on a RUBYstar HTRF plate reader (BMG Labtechnologies). Raw RFU data is normalized to maximum (1.0 nM BACE/DMSO) and minimum (no enzyme/DMSO) RFU values. IC50 values are determined by nonlinear regression analysis (sigmoidal dose response, variable slope) of percent inhibition data with minimum and maximum values set to 0 and 100 percent respectively. Similar IC50s are obtained when using raw RFU data. The Ki values are calculated from the IC50 using the Cheng-Prusoff equation.

[2] = target: Recombinant human soluble BACE-1 catalytic domain (Homo sapiens (Human), UniProt P56817); assay: BACE-1 Ki Assay (BACE-1 HTRF FRET Assay); assay type: biochemical
Procedure: Assay 1: BACE-1 Ki Assay (BACE-1 HTRF FRET Assay)
The compounds of the invention were assessed for their ability to inhibit BACE-1 using the following assay.
The following reagents were used in this assay. Na^+-Acetate pH 5.0; 1% Brij-35; Glycerol; Dimethyl Sulfoxide (DMSO); Recombinant human soluble BACE-1 catalytic domain (>95% pure); APP Swedish mutant peptide substrate (QSY7-APP^swe-Eu): QSY7-EISEVNLDAEFC-Europium-amide.
A homogeneous time-resolved FRET assay can be used to determine IC50 values for inhibitors of the soluble human BACE-1 catalytic domain. This assay monitors the increase of 620 nm fluorescence that resulted from BACE-1 cleavage of an APPswedish APP^swe mutant peptide FRET substrate (QSY7-EISEVNLDAEFC-Europium-amide). This substrate contains an N-terminal QSY7 moiety that serves as a quencher of the C-terminal Europium fluorophore (620 nm Em). In the absence of enzyme activity, 620 nm fluorescence is low in the assay and increased linearly over 3 hours in the presence of uninhibited BACE-1 enzyme. Inhibition of BACE-1 cleavage of the QSY7-APP^swe-Eu substrate by inhibitors is manifested as a suppression of 620 nm fluorescence.
Varying concentrations of inhibitors at 3× the final desired concentration in a volume of 10 ul are preincubated with purified human BACE-1 catalytic domain (3 nM in 10 μl) for 30 minutes at 30° C. in reaction buffer containing 20 mM Na-Acetate pH 5.0, 10% glycerol, 0.1% Brij-35 and 7.5% DSMO. Reactions are initiated by addition of 10 μl of 600 nM QSY7-APP^swe-Eu substrate (200 nM final) to give a final reaction volume of 30 μl in a 384 well Nunc HTRF plate. The reactions are incubated at 30° C. for 1.5 hours. The 620 nm fluorescence is then read on a Rubystar HTRF plate reader (BMG Labtechnologies) using a […] delay followed by a 400 millisecond acquisition time window. Inhibitor IC50 values are derived from non-linear regression analysis of concentration response curves. Ki values are then calculated from IC50 values using the Cheng-Prusoff equation using a previously determined […] of 8 μM for the QSY7-APP^swe-Eu substrate at BACE-1. The example compounds of the invention were measured in this assay.

[3] = Table 1, Ki calculated from IC50 with Cheng-Prusoff equation, read-out: BACE1 Ki
[4] = Table 3, comparator compounds of WO2011044181, read-out: BACE-1 Ki Nm

Chain of purified human autoBACE-2 (Q9Y5Z0 63-473): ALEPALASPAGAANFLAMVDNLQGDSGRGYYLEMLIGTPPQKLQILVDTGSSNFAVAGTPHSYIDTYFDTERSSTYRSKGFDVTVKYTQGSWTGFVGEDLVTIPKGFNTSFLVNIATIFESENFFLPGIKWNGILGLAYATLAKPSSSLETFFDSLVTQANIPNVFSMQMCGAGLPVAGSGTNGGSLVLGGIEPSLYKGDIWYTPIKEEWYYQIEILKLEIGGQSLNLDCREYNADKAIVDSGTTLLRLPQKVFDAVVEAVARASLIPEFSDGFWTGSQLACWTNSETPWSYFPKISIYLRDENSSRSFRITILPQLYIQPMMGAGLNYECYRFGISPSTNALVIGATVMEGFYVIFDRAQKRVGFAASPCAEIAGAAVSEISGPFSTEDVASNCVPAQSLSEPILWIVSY
Chain of Recombinant human soluble BACE-1 catalytic domain (P56817 75-416): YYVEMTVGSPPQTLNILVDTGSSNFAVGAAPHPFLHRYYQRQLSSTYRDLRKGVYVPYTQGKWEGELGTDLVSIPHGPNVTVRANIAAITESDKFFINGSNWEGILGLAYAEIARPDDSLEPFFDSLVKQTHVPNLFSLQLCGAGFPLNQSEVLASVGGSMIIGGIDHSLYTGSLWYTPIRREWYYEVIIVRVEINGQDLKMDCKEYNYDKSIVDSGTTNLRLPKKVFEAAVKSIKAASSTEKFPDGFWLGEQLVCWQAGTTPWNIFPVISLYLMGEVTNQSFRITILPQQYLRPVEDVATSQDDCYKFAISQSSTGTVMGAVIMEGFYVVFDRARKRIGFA

| pKi [1] | pKi [2, 3] | pKi [2, 4] | Structure (SMILES) |
| --- | --- | --- | --- |
| 6.91 | 7.39 | – | CN1C(=N)N[C@](C)(c2cc(N[C@@H]3CCc4ncc(Cl)cc43)ccc2F)CS1(=O)=O [Example 15, (R)-5-(5-(((R)-3-chloro-6,7-dihydro-5H-cyc1openta[b]pyridin-5-yl)amino)-2-fluorophenyl)-3-imino-2,5-dimethyl-1,2,4-thiadiazinane 1,1-dioxide] |
| – | – | 7.39 | COc1cccnc1Nc1cc([C@]2(C)CS(=O)(=O)N(C)C(=N)N2)ccn1 [166 (Table XXI), reference compound] |
| 9.66 | 8.92 | – | CN1C(=N)N[C@](C)(c2cc(Nc3nccc4cc(Cl)cnc34)ccc2F)CS1(=O)=O [Example 1, 3-chloro-N-{4-fluoro-3-[(5R)-3-imino-2,5-dimethyl-1,1-dioxido-1,2,4-thiadiazinan-5-yl]phenyl}-1,7-naphthyridin-8-amine] |
| – | – | 5.43 | COc1ccccc1Nc1cccc([C@]2(C)CS(=O)(=O)N(C)C(=N)N2)n1 [162 (Scheme 40), reference compound] |
| 8.35 | 7.79 | – | COc1cnc2c(Nc3cc([C@]4(C)CS(=O)(=O)N(C)C(=N)N4)c(F)cn3)nccc2c1 [Example 5, N-{5-fluoro-4-[(5R)-3-imino-2,5-dimethyl-1,1-dioxido-1,2,4-thiadiazinan-5-yl]pyridin-2-yl}-3-methoxy-1,7-naphthyridin-8-amine] |
| – | – | 7.16 | COc1ccccc1Nc1cccc([C@]2(C)CS(=O)(=O)N(C)C(=N)N2)c1 [103a (Table IXa), reference compound] |
| 6.62 | 7.24 | – | CN1C(=N)N[C@](C)(c2cc(N[C@@H]3CCc4ncc(C(F)(F)F)cc43)ccc2F)CS1(=O)=O [Example 16, (R)-5-(2-fluoro-5-(((R)-3-(trifluoromethyl)-6,7-dihydro-5H-cyclopenta[b]pyridin-5-yl)amino)phenyl)-3-imino-2,5-dimethyl-1,2,4-thiadiazinane 1,1-dioxide] |
| 7.65 | 8.51 | – | CN1C(=N)N[C@](C)(c2cc(N[C@H]3CCc4cc(C#N)cnc43)ccc2F)CS1(=O)=O [Example 18, (S)-7-((4-fluoro-3-((R)-3-imino-2,5-dimethyl-1,1-dioxido-1,2,4-thiadiazinan-5-yl)phenyl)amino)-6,7-dihydro-5H-cyclopenta[b]pyridine-3-carbonitrile] |
| 7.37 | 7.09 | – | CN1C(=N)N[C@](C)(c2cc(N[C@@H]3CCc4cc(C#N)cnc43)ccc2F)CS1(=O)=O [Example 19, (R)-7-((4-fluoro-3-((R)-3-imino-2,5-dimethyl-1,1-dioxido-1,2,4-thiadiazinan-5-yl)phenyl)amino)-6,7-dihydro-5H-cyclopenta[b]pyridine-3-carbonitrile] |
| – | – | 5.59 | COc1cccnc1Nc1cccc([C@]2(C)CS(=O)(=O)N(C)C(=N)N2)n1 [165 (as listed on page 224), reference compound] |
| – | – | 7.38 | CN1C(=N)N[C@](C)(c2cc(Nc3cccc4c3OC(F)(F)O4)ccc2F)CS1(=O)=O [103 (Scheme 18), reference compound] |
| 7.37 | 6.89 | – | CN1C(=N)N[C@](C)(c2cc(N[C@H]3CCCc4cc(Br)cnc43)ccc2F)CS1(=O)=O [Example 20, (R)-5-(5-(((S)-3-bromo-5,6,7,8-tetrahydroquinolin-8-yl)amino)-2-fluorophenyl)-3-imino-2,5-dimethyl-1,2,4-thiadiazinane 1,1-dioxide] |
| 9.42 | 8.82 | – | CN1C(=N)N[C@](C)(c2cc(Nc3nccc4cc(Br)cnc34)ccc2F)CS1(=O)=O [Example 2, 3-bromo-N-{4-fluoro-3-[(5R)-3-imino-2,5-dimethyl-1,1-dioxido-1,2,4-thiadiazinan-5-yl]phenyl}-1,7-naphthyridin-8-amine] |
| – | – | 5.33 | CN1C(=N)N[C@](C)(c2cccc(Nc3cccc4c3OC(F)(F)O4)n2)CS1(=O)=O [163 (Table XXI), reference compound] |
| 7.81 | 7.97 | – | COc1cnc2c(Nc3ccc(F)c([C@]4(C)CS(=O)(=O)N(C)C(=N)N4)c3)ncnc2n1 [Example 13, N-{4-fluoro-3-[(5R)-3-imino-2,5-dimethyl-1,1-dioxido-1,2,4-thiadiazinan-5-yl]phenyl}-7-methoxypteridin-4-amine] |
| 7.78 | 7.99 | – | CN1C(=N)N[C@](C)(c2cc(N[C@H]3CCc4cc(Cl)ccc43)ccc2F)CS1(=O)=O [Example 17, (R)-5-(5-(((S)-5-chloro-2,3-dihydro-1H-inden-1-yl)amino)-2-fluorophenyl)-3-imino-2,5-dimethyl-1,2,4-thiadiazinane 1,1-dioxide] |
| 9.09 | 8.55 | – | CN1C(=N)N[C@](C)(c2cc(Nc3ncnc4cc(Br)cnc34)ccc2F)CS1(=O)=O [Example 3, 7-bromo-N-{4-fluoro-3-[(5R)-3-imino-2,5-dimethyl-1,1-dioxido-1,2,4-thiadiazinan-5-yl]phenyl}pyrido[3,2-d]pyrimidin-4-amine] |
| – | – | 6.46 | COc1ccccc1Nc1cc([C@]2(C)CS(=O)(=O)N(C)C(=N)N2)ccn1 [167 (Table XXI), reference compound] |
| – | – | 6.29 | CN1C(=N)N[C@](C)(c2cccc(Nc3ccccc3C#N)n2)CS1(=O)=O [103b (Table IXa), reference compound] |
| – | – | 6.29 | CN1C(=N)N[C@](C)(c2cccc(Nc3ncccc3C#N)n2)CS1(=O)=O [164 (Table XXI), reference compound] |

Source: patent publication US10071998B2, “Iminothiadiazine dioxides bearing an amine-linked substituent as BACE inhibitors, compositions, and their use” (Merck Sharp & Dohme Corp., priority 2015, dated 2018)
